Experimental data taken from patent publication US20200306210A1 (ZOGENIX INTERNATIONAL LIMITED, priority 2017, published 2020).
Where “and” joins values, the source holds several entries; their conditions need not be identical. Equal values may be shown once. Where a name gives a salt, the structure may show the parent alone.

Columns and labels:
Assay type in all cases: in vivo, Human
[1] = system: children and young adults with Dravet syndrome; test: Study 1: Behavior Rating Inventory of Executive Function (BRIEF); conditions: for BRIEF Global Executive Composite, change from baseline, mean: raw scores, negative = improvement
Description: In the BRIEF test, the parent/caregiver and/or the patient (e.g., child or adolescent self-reporting) responds to a series of statements or questions in the form of questionnaires, where an answer of “N”=Never a problem, “S”=Sometimes a problem, and “O”=Often a problem are used to indicate that the behavior being described or assessed has occurred in the past 6 months.
Each questionnaire of the BRIEF parent- and teacher-rating form contains 86 items in eight non-overlapping clinical scales and two validity scales. Based on theoretical and empirical analyses (reviewed in chapter 5 of Gioia, Ibid.), the clinical scales combine to form two indexes: a) Behavioral Regulation (three scales) and b) Metacognition (five scales), as well as a Global Executive Composite (GEC), which is a summary score that takes into account all eight clinical scales of the BRIEF and represents the child's overall executive function. There are also two validity scales to measure Negativity and Inconsistency of responses. Scores on the Negativity scale measures the extent to which the respondent answered selected items in an unusually negative manner whereas scores on the Inconsistency scale indicate the extent to which the respondent answered similar items in an inconsistent manner.
The BRIEF (BRIEF-A or BRIEF-P) were administered at the time of patient randomization (on visit 3, which was one day before (study day “−1”) treatment began (study day 1)); the BRIEF was administered again during visit 8 (study day 43), and at the end of the study (visit 12, study day 99) to assess cognitive function.
(§1) The incidence of treatment-emergent adverse events (TEAEs) was monitored continuously during the study. TEAEs were graded by the investigator as mild, moderate, or severe, and related or not related to study medication. Vital signs, height, weight, and clinical laboratory evaluations were performed at each study visit. The Behavior Rating Inventory of Executive Function (BRIEF) was administered at baseline and periodically during the treatment period to assess for any effects of treatment on cognitive function. Doppler echocardiography (ECHOs) and 12-lead electrocardiography (ECGs) were performed during the screening/baseline period, after 6 weeks of treatment, and after 14 weeks of treatment at the end of the maintenance period. The ECGs and ECHOs were evaluated by two independent cardiologists who were blind to treatment randomization. In the event of disagreement, a third cardiologist arbitrated the decision.

[2] = system: children and young adults with Dravet syndrome; test: Study 1: Clinical Global Impression of Improvement (CGI-I)
Experimental: CGI-S and CGI-I ratings were made by clinical investigators and parent/caregivers in a series of phase III trials of fenfluramine. CGI changes were measured in two randomized, controlled trials with results reported herein. Study 1 was conducted as described in Example 1 and CGI ratings were made according to a set schedule of visits made to the clinic. Tables of results and bar graphs of the statistical analyses of CGI ratings for Study 1 at visit twelve (day 113) are provided in FIGS. 1-4. […] Similar results were obtained with investigator CGI-I rating.
(§2) In Study 1, subjects were assessed using Clinical Global Impression (CGI), allowing the parent/caregiver and principal investigator to assess improvement, as well as the Quality of Life in Childhood Epilepsy (QOLCE) Scale and the Pediatric Quality of Life Inventory (PedsQL) to measure changes in the quality of life of the subject. Comparisons between treatment groups were made using Wilcoxon rank sum tests.
The CGI scale measures the change in the subject's clinical status from a specific point in time, i.e., the Baseline Period (and also referred to as the CGI-S, an initial ranking of severity). The CGI rating scale permits a global evaluation of the subject's improvement over time.

[3] = system: children and young adults with Dravet syndrome; test: Study 1: quality of life (PedsQL, QOLCE); conditions: increase indicates improvement
Experimental: as §2
In 2003, Varni and colleagues published a study intended to determine the feasibility, reliability, and validity of the 23-item PEDSQL 4.0 (Pediatric Quality of Life Inventory) Generic Core Scales as a measure of pediatric population health for children and adolescents. The instrument was given to over 10,000 families with children age 2-16 in the state of California. From Varni, et al., parent reported changes in each of the scales and summary scores that could be considered clinically meaningful include a change of >1 SEM or Standard Error of Measurement as a cut point.

[4] = system: children and young adults with Dravet syndrome; test: Study 1: safety (TEAEs, body weight, echocardiography)
Experimental: as §1
All subjects received ZX008 or matching placebo for up to approximately 16 weeks (Titration Period=2 weeks; Maintenance Period=12 weeks; Taper/Transition Period=2 weeks) in Study 1. After completion of the Maintenance Period, eligible subjects could enroll in an open-label extension (OLE) study, after completion of the transition. […] Follow-up cardiovascular safety assessments, including ECG and ECHO, were performed 3 to 6 months following the last dose of study medication.
In the ZX008 0.2 mg/kg/day group, 5 (12.8%) subjects had weight losses ranging from 8.4% to 21.9% of body weight; the one subject with a 21.9% loss was under the guidance of a nutritionist to manage their weight during the trial, and another subject with a 15.3% loss had been diagnosed with diabetes mellitus shortly before enrolling in the study and was also being managed to lose weight. One subject in the 0.2 mg/kg/day group gained 10.3% body weight during the study. In the ZX008 0.8 mg/kg/day group, 8 (20.0%) subjects lost weight, ranging from 7.2% to 11.4% of baseline body weight. One subject in the ZX008 0.8 mg/kg/day group discontinued citing decreased appetite and weight loss, among other events. The weight loss, however, amounted to less than 1 kg. There were no deaths in the study.

In the case of `CCNC(C)Cc1cccc(C(F)(F)F)c1` (centres unmarked) [ZX008, fenfluramine hydrochloride], the “BRIEF BRI, improvement compared to baseline as compared to placebo” value ([1]; 0.2 mg/kg/day, P<0.05) is reported as “significant improvement”, the “BRIEF Global Executive Composite, change from baseline, mean” value ([1]; 0.2 mg/kg/day) is reported as −4.4 ± 22.3 and the “BRIEF BRI, improvement compared to baseline as compared to placebo” value ([1]; 0.8 mg/kg/day, P<0.05) is reported as “statistically significant improvement”. The “BRIEF GEC, improvement compared to baseline as compared to placebo” value ([1]; 0.8 mg/kg/day, P<0.05) was “statistically significant improvement”, the “BRIEF Global Executive Composite, change from baseline, mean” value ([1]; 0.8 mg/kg/day) was −11.0 ± 29.1 and the “BRIEF-P, difference from placebo” value ([1]; 0.2 and 0.8 mg/kg/day, hydrochloride) was “No changes”. The “CGI-I Investigator rating 'very much improved' or 'much improved', %” value ([2]; 0.2 mg/kg/day, n = 39) was “(41.0%)”, the “CGI-I Parent/caregiver rating 'very much improved' or 'much improved', %” value ([2]; 0.2 mg/kg/day, n = 39) was “(41.0%)” and the “CGI-I Investigator rating 'very much improved' or 'much improved', %” value ([2]; 0.8 mg/kg/day, n = 40) was “(55.0%)”. The “CGI-I Parent/caregiver rating 'very much improved' or 'much improved', %” value ([2]; 0.8 mg/kg/day, n = 40) was “(55.0%)”, the “Pediatric Quality of Life Inventory (Peds QL) Total Score, change from baseline, mean ± SD” value ([3]; 0.2 mg/kg/day) was 6.8 ± 11.3 and the “Pediatric Quality of Life Inventory (Peds QL) Total Score, change from baseline, mean ± SD” value ([3]; 0.8 mg/kg/day) was 5.9 ± 15.1. For the same compound, the “Deaths in the study” value [4] was “no deaths”, the Tolerability [4] was “generally well tolerated” and the “At least one echocardiographic finding with trace mitral and/or trace aortic regurgitation, % of subjects” value ([4]; 0.2 mg/kg/day) was 17.9%. The “At least one echocardiographic finding with trace mitral and/or trace aortic regurgitation, number of subjects” value ([4]; 0.2 mg/kg/day) was 7, the “Body weight gained during the study, one subject” value ([4]; 0.2 mg/kg/day) was 10.3% and the “Serious adverse events, % of subjects” value ([4]; 0.2 mg/kg/day) was 10.3%. For the same compound, the “Serious adverse events, number of subjects” value ([4]; 0.2 mg/kg/day) was 4, the “Status epilepticus (serious adverse event), % of subjects” value ([4]; 0.2 mg/kg/day) was 2.6% and the “Status epilepticus (serious adverse event), number of subjects” value ([4]; 0.2 mg/kg/day) was 1. For the same compound, the “Subjects with weight loss (change from baseline ≥7%), number” value ([4]; 0.2 mg/kg/day) was 5, the “TEAEs mild to moderate in severity, % of patients among those with TEAEs” value ([4]; 0.2 mg/kg/day) was 94.6% and the “TEAEs mild to moderate in severity, number of patients among those with TEAEs” value ([4]; 0.2 mg/kg/day) was 35. The “Subjects with weight loss (change from baseline ≥7%), %” value ([4]; 0.2 mg/kg/day, hydrochloride) was 12.8% and 13%, the “At least one echocardiographic finding with trace mitral and/or trace aortic regurgitation, % of subjects” value ([4]; 0.8 mg/kg/day) was 22.5% and the “At least one echocardiographic finding with trace mitral and/or trace aortic regurgitation, number of subjects” value ([4]; 0.8 mg/kg/day) was 9. For the same compound, the “Serious adverse events, % of subjects” value ([4]; 0.8 mg/kg/day) was 12.5%, the “Serious adverse events, number of subjects” value ([4]; 0.8 mg/kg/day) was 5 and the “Status epilepticus (serious adverse event), % of subjects” value ([4]; 0.8 mg/kg/day) was 5%. The “Status epilepticus (serious adverse event), number of subjects” value ([4]; 0.8 mg/kg/day) was 2, the “Subjects with weight loss (change from baseline ≥7%), number” value ([4]; 0.8 mg/kg/day) was 8 and the “TEAEs mild to moderate in severity, % of patients among those with TEAEs” value ([4]; 0.8 mg/kg/day) was 92.1%. For the same compound, the “TEAEs mild to moderate in severity, number of patients among those with TEAEs” value ([4]; 0.8 mg/kg/day) was 35, the “Subjects with weight loss (change from baseline ≥7%), %” value ([4]; 0.8 mg/kg/day, hydrochloride) was 20% and the “Most common non-cardiovascular adverse events” value ([4]; ZX008-treated patients) was “decreased appetite, diarrhea, nasopharyngitis, lethargy, somnolence, and pyrexia”. For the same compound, the “TEAEs reported, % of subjects” value ([4]; each ZX008 dose group (0.2 and 0.8 mg/kg/day)) was 95% and the “Cases of cardiac valvulopathy or pulmonary hypertension” value ([4]; ≤30 mg/day, 14-week treatment and 2-week transition, hydrochloride) was “no cases”.
